For 14 compounds, IC50 and MIC results are on record in paper PMC7722354, “7-Substituted 2-Nitro-5,6-dihydroimidazo[2,1-b][1,3]oxazines: Novel Antitubercular Agents Lead to a New Preclinical Candidate for Visceral Leishmaniasis” (Journal of Medicinal Chemistry, 2017).

One may read the IC50 as the concentration that gives 50% inhibition. Low readings indicate inhibition by little substance, high ones a need for much substance. What is called MIC is the least concentration at which growth counts as inhibited.

≈ marks a conversion by molar mass, not a printed value. Some results are limits rather than exact numbers.

The test system of one assay is Leishmania donovani. Kind of assay: L. don amastigote mouse macrophage-based luciferase assay (CDRI). The format is cell-based. The settings on record: in mouse macrophages, single test (CDRI).
Another assay has as its system Leishmania infantum. Kind of assay: L. inf growth inhibition in mouse macrophages (LMPH). The class given is cell-based. The settings on record: Macrophage, mean of at least two determinations.
For another assay, the system named is Trypanosoma cruzi. Kind of assay: T. cruzi growth inhibition on MRC-5 cells (LMPH). The class given is cell-based. The settings on record: MRC5.
Assay [1] relates to human lung fibroblasts (MRC-5 cells). Kind of assay: cytotoxicity toward MRC-5 cells (LMPH). The following applies: MRC5. The class given is cell-based.
Assay [2] concerns M. tb, strain H37Rv. Briefly: MABA minimum inhibitory concentration assay (aerobic). The format is cell-based, Mycobacterium tuberculosis.
The subject of assay [3] is M. tb, strain H37Rv. Briefly: LORA minimum inhibitory concentration assay (hypoxic). The format is cell-based. The following applies: Mycobacterium tuberculosis.
[4] abbreviates: Mycobacterium tuberculosis, H37RV, read-out: MIC MABA, aerobic.
Setting [5] is: Mycobacterium tuberculosis, H37RV, aerobic, read-out: MIC MABA.

In the case of `O=[N+]([O-])c1cn2c(n1)OC(COc1cccc(-c3ccc(F)nc3)n1)CC2` (stereo not drawn) [compound 117], the IC50 with Leishmania donovani was over 10000 nM; with Leishmania infantum, 44000 nM; in the assay with Trypanosoma cruzi it was 130 nM; in assay [1], 35000 nM. Moreover, the MIC is over 128 µM with M. tb, strain H37Rv [2] (setting [4]) and over 128 µM against M. tb, strain H37Rv [3].

`CC1(COc2ncc(-c3ccc(F)nc3)cn2)CCn2cc([N+](=O)[O-])nc2O1` (stereo not drawn) [compound 133]: the IC50 in the assay on Leishmania donovani was 1300 nM; with Leishmania infantum, 6100 nM; with Trypanosoma cruzi, 2900 nM; in assay [1], over 64000 nM. Further, the MIC in the assay with M. tb, strain H37Rv [2] (setting [5]) was 23 µM (≈ 8.89 µg/mL); in the assay on M. tb, strain H37Rv [3], 54 µM (≈ 20.9 µg/mL).

In the case of `O=[N+]([O-])c1cn2c(n1)OC(COc1ccc(-c3ccc(OC(F)(F)F)cc3)cn1)CC2` (stereo not drawn) [compound 64], the IC50 in the assay on Leishmania donovani is 50 nM; in the assay with Leishmania infantum it was 350 nM; with Trypanosoma cruzi, 120 nM; in assay [1], over 64000 nM. Besides, the minimum inhibitory concentration (MIC) with M. tb, strain H37Rv [2] (setting [5]) was 0.02 to 0.04 µM (≈ 0.00873 to 0.0175 µg/mL); in the assay with M. tb, strain H37Rv [2] (aerobic, read-out: MIC MABA), 0.027 µM (≈ 0.0118 µg/mL); in the assay with M. tb, strain H37Rv [3], 0.47 µM (≈ 0.205 µg/mL).

For the compound `O=[N+]([O-])c1cn2c(n1)OC(CN1CCC(c3ccc(F)cc3)CC1)CC2` (stereo not drawn) [compound 147], the IC50 in the assay on Leishmania donovani was 880 nM; in the assay with Leishmania infantum it was 870 nM; with Trypanosoma cruzi it was 2900 nM; in assay [1] it was over 64000 nM. Further, the MIC with M. tb, strain H37Rv [2] (setting [5]) was 2.1 µM (≈ 0.757 µg/mL); against M. tb, strain H37Rv [3], 11 µM (≈ 3.96 µg/mL).

For the compound `CC1(COCc2ccc(-c3ccc(F)cc3)cc2)CCn2cc([N+](=O)[O-])nc2O1` (stereo not drawn) [compound 27], the IC50 in the assay on Leishmania donovani was 220 nM; in the assay with Leishmania infantum, 1800 nM; in the assay on Trypanosoma cruzi, 840 nM; in assay [1] it was over 64000 nM. Further, the MIC in the assay on M. tb, strain H37Rv [2] (setting [5]) amounted to 0.085 µM (≈ 0.0338 µg/mL); in the assay on M. tb, strain H37Rv [3], 0.61 µM (≈ 0.242 µg/mL).

With `CC1(COc2ccc(-c3ccc(F)cn3)cn2)CCn2cc([N+](=O)[O-])nc2O1` (stereo not drawn) [compound 106], the IC50 in the assay with Leishmania donovani is 150 nM; in the assay on Leishmania infantum, 340 nM; in the assay on Trypanosoma cruzi, 250 nM; in assay [1] it was over 64000 nM. Moreover, the MIC worked out at 0.4 µM (≈ 0.154 µg/mL) in the assay with M. tb, strain H37Rv [2] (setting [5]) and 9.5 µM (≈ 3.66 µg/mL) against M. tb, strain H37Rv [3].

With `O=C(OCC1CCn2cc([N+](=O)[O-])nc2O1)N1CCN(c2ccc(F)cc2)CC1` (stereo not drawn) [compound 160, (2-Nitro-6,7-dihydro-5H-imidazo[2,1-b][1,3]oxazin-7-yl)methyl 4-(4-fluorophenyl)-piperazine-1-carboxylate], the IC50 was over 100000 nM in the assay on Leishmania donovani, over 64000 nM in the assay on Leishmania infantum, 1500 nM with Trypanosoma cruzi and over 64000 nM in assay [1]. The MIC in the assay on M. tb, strain H37Rv [2] (setting [5]) was 2.5 µM (≈ 1.01 µg/mL); with M. tb, strain H37Rv [3], 22 µM (≈ 8.92 µg/mL).

As to `O=[N+]([O-])c1cn2c(n1)OC(COc1cccc(-c3ccc(F)cc3F)n1)CC2` (stereo not drawn) [compound 102], the IC50 with Leishmania donovani is 250 nM; in the assay with Leishmania infantum, 4000 nM; in the assay on Trypanosoma cruzi it was 230 nM; in assay [1], over 64000 nM. Moreover, the MIC in the assay on M. tb, strain H37Rv [2] (setting [4]) is over 128 µM; against M. tb, strain H37Rv [3], over 128 µM.

As to `O=[N+]([O-])c1cn2c(n1)OC(COCc1ccc(-c3ccc(F)cc3)cc1)CC2` (stereo not drawn) [compound 25, 7-{[(4′-Fluoro[1,1′-biphenyl]-4-yl)methoxy]methyl}-2-nitro-6,7-dihydro-5H-imidazo[2,1-b][1,3]oxazine], the IC50 in the assay on Leishmania donovani is 20 nM; in the assay on Leishmania infantum, 170 nM; in the assay with Trypanosoma cruzi it was 530 nM; in assay [1], over 64000 nM. Further, the MIC came out at 0.08 µM (≈ 0.0307 µg/mL) in the assay with M. tb, strain H37Rv [2] (setting [5]) and 1.3 µM (≈ 0.498 µg/mL) against M. tb, strain H37Rv [3].

As to `CC1(COC(=O)N2CCN(c3ccc(F)cc3)CC2)CCn2cc([N+](=O)[O-])nc2O1` (stereo not drawn) [compound 161], the IC50 with Leishmania donovani was 290 nM; with Leishmania infantum it was 720 nM; in the assay with Trypanosoma cruzi, 3900 nM; in assay [1], over 64000 nM. Besides, the MIC in the assay on M. tb, strain H37Rv [2] (setting [5]) was determined as 3.4 µM (≈ 1.43 µg/mL); against M. tb, strain H37Rv [3], 8.4 µM (≈ 3.52 µg/mL).

Consider `CC1(COc2ccc(-c3ccc(OC(F)(F)F)cc3)cn2)CCn2cc([N+](=O)[O-])nc2O1` (stereo not drawn) [compound 65], for which the IC50 was 260 nM with Leishmania donovani, 3800 nM in the assay on Leishmania infantum, 1000 nM in the assay on Trypanosoma cruzi and over 64000 nM in assay [1]. Further, the minimal inhibitory concentration (MIC) with M. tb, strain H37Rv [2] (setting [5]) came out at 0.13 µM (≈ 0.0585 µg/mL); in the assay on M. tb, strain H37Rv [3], 5.3 µM (≈ 2.39 µg/mL).

As to `O=[N+]([O-])c1cn2c(n1)OC(COc1ccc(-c3ccc(F)cn3)cn1)CC2` (stereo not drawn) [compound 105], the IC50 in the assay on Leishmania donovani is 60 nM; in the assay on Leishmania infantum, 50000 nM; in the assay with Trypanosoma cruzi it was 340 nM; in assay [1], over 64000 nM. The MIC in the assay with M. tb, strain H37Rv [2] (setting [5]) worked out at 0.15 µM (≈ 0.0557 µg/mL); against M. tb, strain H37Rv [3], 11 µM (≈ 4.08 µg/mL).

Turning to `CC1(COc2cccc(-c3ccc(F)cc3)n2)CCn2cc([N+](=O)[O-])nc2O1` (stereo not drawn) [compound 101], the IC50 is 180 nM in the assay on Leishmania infantum, 350 nM in the assay with Trypanosoma cruzi and over 64000 nM in assay [1]. Also, the MIC with M. tb, strain H37Rv [2] (setting [5]) stood at 0.94 µM (≈ 0.361 µg/mL); with M. tb, strain H37Rv [3], 5 µM (≈ 1.92 µg/mL).

Take `CC1(COc2ccc(-c3ccc(F)cc3)cc2)CCn2cc([N+](=O)[O-])nc2O1` (stereo not drawn) [compound 52]: the IC50 in the assay on Leishmania donovani was 200 nM; with Leishmania infantum, 340 nM; in the assay with Trypanosoma cruzi it was 350 nM; in assay [1], over 64000 nM. In addition, the MIC with M. tb, strain H37Rv [2] (setting [5]) was 0.085 µM (≈ 0.0326 µg/mL); in the assay with M. tb, strain H37Rv [3], 1.4 µM (≈ 0.537 µg/mL).
